{"source": "patent US5202309A", "about": "“Antibiotic cyclopeptide fermentation product” (Merck & Co., Inc., priority 1991, dated 1993)", "key": {"Candida albicans": {"test_system": "Candida albicans", "assay": "Microbroth dilution assay in YNBD, minimum fungicidal concentration", "format": "cell-based", "conditions": "then Sabouraud dextrose agar 24 hours at 28° C.", "method": "(§1) The compounds were further diluted to 256 μg/ml in YNBD. […] After incubation, each culture was diluted in sterile water to yield a final concentration of 1-5×10^6 colony forming units (CFU)/ml."}, "Candida parapsilosis": {"test_system": "Candida parapsilosis", "assay": "Microbroth dilution assay in YNBD, minimum fungicidal concentration", "format": "cell-based", "conditions": "Candida parapsilosis MY 1010, 35° C. 24 hours, then Sabouraud dextrose agar 24 hours at 28° C.", "method": "as §1"}}, "note": "Numbered stars: 1 amine (or outer) side, 2 acyl side, 3 side chain; on linkers, the order of the positions; unused ones are H or OH. Bridge positions count the residues as written; N and C are the ends. Square brackets hold non-standard residues; d marks the D form. Peptide text beside a SMILES is read from it. * marks the point of attachment. Orn(4R-OH,5R-OH) = O=C([C@H](C[C@@H](O)[C@@H](O)N[*:3])N[*:1])[*:2]; Tetradecanoyl(10R,12S-Me2) = CC[C@H](C)C[C@H](C)CCCCCCCCC(=O)*; hTyr(3S-OH,4S-OH) = N[C@H](C(=O)O)[C@H](O)[C@@H](O)c1ccc(O)cc1; Gln(3R-OH) = NC(=O)C[C@@H](O)[C@H](N)C(=O)O; Pro(3S-OH) = O=C(O)[C@H]1NCC[C@@H]1O; Hyp = O=C(O)[C@@H]1C[C@@H](O)CN1"}
{"smiles": "CC[C@H](C)C[C@H](C)CCCCCCCCC(=O)N[C@H]1C[C@@H](O)[C@@H](O)NC(=O)[C@@H]2[C@@H](O)CCN2C(=O)[C@H]([C@H](O)CC(N)=O)NC(=O)[C@H]([C@H](O)[C@@H](O)c2ccc(O)cc2)NC(=O)[C@@H]2C[C@@H](O)CN2C(=O)[C@H]([C@@H](C)O)NC1=O", "note": "[Compound I, 1-[4,5-dihydroxy-N^2-(10,12-dimethyl-1-oxotetradecyl)ornithine]-5-(3-hydroxy-glutamine)-6-(3-hydroxyproline)echinocandin B] ({Tetradecanoyl(10R,12S-Me2)}-[Orn(4R-OH,5R-OH)]T[Hyp][hTyr(3S-OH,4S-OH)][Gln(3R-OH)][Pro(3S-OH)]; lactam 1-C)", "values": [{"measurement": "Minimum Fungicidal Concentration", "setting": "Candida albicans; Candida albicans MY 1208, 35° C. 24 hours", "value": 0.5, "unit": "µg/mL"}, {"measurement": "Minimum Fungicidal Concentration", "setting": "Candida albicans; Candida albicans MY 1783, 35° C. 24 hours", "value": 0.5, "unit": "µg/mL"}, {"measurement": "Minimum Fungicidal Concentration", "setting": "Candida parapsilosis", "value": 8.0, "unit": "µg/mL"}]}
